# Test results: patent US7060822B1, “2-pyrazolin-5-ones” (Abbott GmbH & Co. KG, priority 1999, dated 2006)
row,Structure (SMILES),melting point
1,"Cc1ccc(NC2=NNC(=O)C2=Cc2ccc[nH]2)cc1 [Example 15, 3-(4-Methylphenylamino)-4-[(pyrrol-2-yl)methylene]-2-pyrazolin-5-one]",256 to 258 °C
2,"COc1ccc(NC2=NNC(=O)C2=Cc2ccc[nH]2)cc1 [Example 16, 3-(4-Methoxyphenylamino)-4-[(pyrrol-2-yl)methylene]-2-pyrazolin-5-one]",288 to 290 °C
3,"O=C1NN=C(Nc2ccc(Cl)cc2)C1=Cc1ccc[nH]1 [Example 18, 3-(4-Chlorophenylamino)-4-[(pyrrol-2-yl)methylene]-2-pyrazolin-5-one]",245 to 247 °C
4,"O=C1NN=C(c2c[nH]c3ccccc23)C1=Cc1ccc[nH]1 [Example 20, 3-(Indol-3-yl)-4-[(pyrrol-2-yl)methylene]-2-pyrazolin-5-one]",300 to 305 °C
5,"O=C1NN=C(COc2ccc(-c3ccccc3)cc2)C1=Cc1ccc[nH]1 [Example 24, 3-(4-Phenylphenyloxymethyl)-4-[(pyrrol-2-yl)methylene]-2-pyrazolin-5-one]",192 to 194 °C
6,"CC(CC1=NNC(=O)C1=Cc1ccc[nH]1)c1ccccc1 (stereo not shown) [Example 25, 3-(2-Phenylpropyl)-4-[(pyrrol-2-yl)methylene]-2-pyrazolin-5-one]",130 to 131 °C
7,"Cc1cc(C)c(C=C2C(=O)NN=C2OC(C)C)[nH]1 [Example 30, 4-[(3,5-Dimethylpyrrol-2-yl)methylene]-3-isopropoxy-2-pyrazolin-5-one]",176 to 177 °C
8,"CCOC1=NNC(=O)C1=Cc1ccc[nH]1 [Example 31, 3-Ethoxy-4-[(pyrrol-2-yl)methylene]-2-pyrazolin-5-one]",211 to 213 °C
9,"O=C1NN=C(Nc2ccc(F)cc2)C1=Cc1ccc[nH]1 [Example 33, 3-(4-Fluorophenylamino)-4-[(pyrrol-2-yl)methylene]-2-pyrazolin-5-one]",272 to 273 °C
10,"Cc1cc(C=C2C(=O)NN=C2OC(C)C)[nH]c1C [Example 35, 4-[(4,5-Dimethylpyrrol-2-yl)methylene]-3-isopropoxy-2-pyrazolin-5-one]",195 to 197 °C
11,"CC(C)OC1=NNC(=O)C1=Cc1cccn1CCCCO [Example 38, 4-{[1-(4-Hydroxybutyl)pyrrol-2-yl]methylene}-3-isopropoxy-2-pyrazolin-5-one]",138 to 140 °C
12,"O=C1NN=C(OC2CCCC2)C1=Cc1ccc[nH]1 [Example 39, 3-Cyclopentyloxy-4-[(pyrrol-2-yl)methylene]-2-pyrazolin-5-one]",201 to 203 °C
13,"Cc1c[nH]c(C=C2C(=O)NN=C2OC(C)C)c1 [Example 41, 3-Isopropoxy-4-[(4-methylpyrrol-2-yl)methylene]-2-pyrazolin-5-one]",215 to 217 °C
14,"CC(C)OC1=NNC(=O)C1=Cc1cccn1C [Example 43, 3-Isopropoxy-4-[(1-methylpyrrol-2-yl)methylene]-2-pyrazolin-5-one]",199 to 201 °C
15,"Cc1ccc(C=C2C(=O)NN=C2OC(C)C)[nH]1 [Example 44, 3-Isopropoxy-4-[(5-methylpyrrol-2-yl)methylene]-2-pyrazolin-5-one]",128 to 130 °C
16,"O=C1NN=C(C2CCC2)C1=Cc1ccc[nH]1 [Example 57, 3-Cyclobutyl-4-[(pyrrol-2-yl)methylene]-2-pyrazolin-5-one]",150 to 152 °C
17,"O=C1NN=C(C2CC2)C1=Cc1cccn1-c1cc(Cl)cc(Cl)c1 [Example 59, 3-Cyclopropyl-4-[[1-(3,5-dichlorophenyl)pyrrol-2-yl)methylene]-2-pyrazolin-5-one]",188 to 190 °C
18,"CC1(C)C(C2=NNC(=O)C2=Cc2ccc[nH]2)C1(C)C [Example 60, 4-[(Pyrrol-2-yl)methylene]-3-(2,2,3,3-tetramethylcyclopropyl)-2-pyrazolin-5-one]",160 to 162 °C
19,"Cc1cc(C)c(C=C2C(=O)NN=C2C2CC2)[nH]1 [Example 61, 3-Cyclopropyl-4-[(3,5-dimethylpyrrol-2-yl)methylene]-2-pyrazolin-5-one]",193 to 195 °C
20,"O=C1NN=C(C2CCCC2)C1=Cc1ccc[nH]1 [Example 62, 3-Cyclopentyl-4-[(pyrrol-2-yl)methylene]-2-pyrazolin-5-one]",127 to 129 °C
21,"CC1CC1C1=NNC(=O)C1=Cc1ccc[nH]1 (stereo not shown) [Example 63, 3-(2-Methylcyclopropyl)-4-[(pyrrol-2-yl)methylene]-2-pyrazolin-5-one]",132 to 133 °C

# Now from value to compound:
row,melting point,Structure (SMILES)
1,178 to 180 °C,"O=C1NN=C(Cc2ccc(Cl)cc2)C1=Cc1ccc[nH]1 [Example 17, 3-(4-Chlorobenzyl)-4-[(pyrrol-2-yl)methylene]-2-pyrazolin-5-one]"
2,165 to 167 °C,"O=C1NN=C(COc2cccc(Cl)c2)C1=Cc1ccc[nH]1 [Example 19, 3-(3-Chlorophenyloxymethyl)-4-[(pyrrol-2-yl)methylene]-2-pyrazolin-5-one]"
3,169 to 171 °C,"COc1cccc(CC2=NNC(=O)C2=Cc2ccc[nH]2)c1 [Example 21, 3-(3-Methoxybenzyl)-4-[(pyrrol-2-yl)methylene]-2-pyrazolin-5-one]"
4,164 to 165 °C,"COc1ccc(CC2=NNC(=O)C2=Cc2ccc[nH]2)cc1OC [Example 22, 3-(3,4-Dimethoxybenzyl)-4-[(pyrrol-2-yl)methylene]-2-pyrazolin-5-one]"
5,137 to 139 °C,"COc1ccc(CCC2=NNC(=O)C2=Cc2ccc[nH]2)cc1 [Example 23, 3-(4-Methoxyphenylethyl)-4-[(pyrrol-2-yl)methylene]-2-pyrazolin-5-one]"
6,169 to 170 °C,"O=C1NN=C(CCCc2ccccc2)C1=Cc1ccc[nH]1 [Example 26, 3-(3-Phenylpropyl)-4-[(pyrrol-2-yl)methylene]-2-pyrazolin-5-one]"
7,253 to 255 °C,"O=C1NN=C(CCc2ccc(O)cc2)C1=Cc1ccc[nH]1 [Example 27, 3-(4-Hydroxyphenylethyl)-4-[(pyrrol-2-yl)methylene]-2-pyrazolin-5-one]"
8,186 to 187 °C,"Cc1cc(C)c(C=C2C(=O)NN=C2CCc2ccccc2)[nH]1 [Example 28, 4-[(3,5-Dimethylpyrrol-2-yl)methylene]-3-phenylethyl-2-pyrazolin-5-one]"
9,153 to 154 °C,"Cc1ccc(CCC2=NNC(=O)C2=Cc2ccc[nH]2)cc1 [Example 29, 3-(4-Methylphenylethyl)-4-[(pyrrol-2-yl)methylene]-2-pyrazolin-5-one]"
10,224 to 226 °C,"O=C1NN=C(CCc2ccc([N+](=O)[O-])cc2)C1=Cc1ccc[nH]1 [Example 32, 3-(4-Nitrophenylethyl)-4-[(pyrrol-2-yl)methylene]-2-pyrazolin-5-one]"
11,193 to 194 °C,"O=C1NN=C(CCc2ccc(Cl)cc2)C1=Cc1ccc[nH]1 [Example 34, 3-(4-Chlorophenylethyl)-4-[(pyrrol-2-yl)methylene]-2-pyrazolin-5-one]"
12,188 to 190 °C,"CCc1c(C)[nH]c(C=C2C(=O)NN=C2OC(C)C)c1C [Example 36, 4-[(3,5-Dimethyl-4-ethylpyrrol-2-yl)methylene]-3-isopropoxy-2-pyrazolin-5-one]"
13,168 to 170 °C,"CCc1c(C)[nH]c(C=C2C(=O)NN=C2CCc2ccccc2)c1C [Example 37, 4-[(3,5-Dimethyl-4-ethylpyrrol-2-yl)methylene]-3-phenylethyl-2-pyrazolin-5-one]"
14,178 to 180 °C,"Cc1c[nH]c(C=C2C(=O)NN=C2CCc2ccc(N)cc2)c1 [Example 42, 3-(4-Aminophenylethyl)-4-[(4-methylpyrrol-2-yl)methylene]-2-pyrazolin-5-one]"
15,183 to 185 °C,"CCc1c(C)[nH]c(C=C2C(=O)NN=C2CCc2ccc(N)cc2)c1C [Example 45, 3-(4-Aminophenylethyl)-4-[(3,5-dimethyl-4-ethylpyrrol-2-yl)methylene]-2-pyrazolin-5-one]"
16,197 to 199 °C,"CCOC1=NNC(=O)C1=Cc1ccc(C)[nH]1 [Example 46, 3-Ethoxy-4-[(5-methylpyrrol-2-yl)methylene]2-pyrazolin-5-one]"
17,297 to 299 °C,"CCc1c(C)[nH]c(C=C2C(=O)NN=C2CCc2ccc(C(N)=O)cc2)c1C [Example 47, 3-(4-Carbamoylphenylethyl)-4-[(3,5-dimethyl-4-ethylpyrrol-2-yl)methylene]-2-pyrazolin-5-one]"
18,226 to 228 °C,"CCOC(=O)c1c(C)[nH]c(C=C2C(=O)NN=C2OC(C)C)c1C [Example 49, 4-[(3,5-Dimethyl-4-ethoxycarbonylpyrrol-2-yl)methylene]-3-isopropoxy-2-pyrazolin-5-one]"
19,186 to 188 °C,"CCOC(=O)c1c(C)[nH]c(C=C2C(=O)NN=C2CCc2ccc(N)cc2)c1C [Example 50, 3-(4-Aminophenylethyl)-4-[(3,5-dimethyl-4-ethoxycarbonylpyrrol-2-yl)methylene]-2-pyrazolin-5-one]"
20,119 to 121 °C,"CCc1ccc(C=C2C(=O)NN=C2OC(C)C)[nH]1 [Example 51, 4-[(5-Ethylpyrrol-2-yl)methylene]-3-isopropoxy-2-pyrazolin-5-one]"
21,260 to 262 °C,"CCc1c(C)[nH]c(C=C2C(=O)NN=C2CCc2ccc(O)cc2)c1C [Example 52, 4-[(3,5-Dimethyl-4-ethylpyrrol-2-yl)methylene]-3-(4-hydroxyphenylethyl)-2-pyrazolin-5-one]"
22,124 to 126 °C,"CCOC(=O)CC1=NNC(=O)C1=Cc1ccc[nH]1 [Example 53, 3-(Ethoxycarbonylmethyl)-4-[(pyrrol-2-yl)methylene]-2-pyrazolin-5-one]"
23,240 to 242 °C,"COc1ccc(NC(=O)CC2=NNC(=O)C2=Cc2ccc[nH]2)cc1 [Example 54, 3-(4-Methoxyphenylaminocarbonylmethyl)-4-[(pyrrol-2-yl)methylene]-2-pyrazolin-5-one]"
24,229 to 231 °C,"Cc1c[nH]c(C=C2C(=O)NN=C2C(C)C)c1CCC(=O)O [Example 55, 4-{(3-(2-Carboxyethyl)-4-methylpyrrol-2-yl]methylene}-3-isopropyl-2-pyrazolin-5-one]"
25,206 to 210 °C,"CCc1c(C)[nH]c(C=C2C(=O)NN=C2C2CC2)c1C [Example 66, 3-Cyclopropyl-4[(3,5-dimethyl-4-ethylpyrrol-2-yl)methylene]-2-pyrazolin-5-one]"
